Among the data in patent US10583092B2, “Therapeutic nanoparticles comprising a protonatable nitrogen therapeutic agent and methods of making and using same” (Pfizer Inc., priority 2014, dated 2020) are improvement of solubility values, retold here.

A short description of this data set: Solubility of dasatinib in solvents, quantified using HPLC. The data set is classed as physicochemical. Particulars: benzyl alcohol doped with oleic acid versus benzyl alcohol. From the text: The solubility of dasatinib in benzyl alcohol, ethyl acetate, and mixtures of oleic acid and benzyl alcohol were quantified using HPLC.

Structures are written as SMILES.

On to `Cc1nc(Nc2ncc(C(=O)Nc3c(C)cccc3Cl)s2)cc(N2CCN(CCO)CC2)n1` [dasatinib], for which the improvement of solubility is 2-3 fold.
